Source: PubChem BioAssay AID248 (DTP/NCI, 2004)
Where “and” joins values, the source holds several entries; their conditions need not be identical. Identical values can stand only once. Toxic doses and inconclusive results are not listed. No stated cut-off is given here; in the data, active means T/C of 150% or more; inactive means T/C below 125%.

System: L1210 leukemia ip in BDF1 mice, survival T/C
Experiment: NCI In Vivo Anticancer Drug Screen. Data for tumor model L1210 Leukemia (intraperitoneal) in B6D2F1 (BDF1) mice
Conditions: endpoint: mean survival time, higher = longer survival
Method in brief: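 In this screen, tumor-bearing mice given compound are compared to those given vehicle, and their survival values are reported as a treated-to-control quotient.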

[1] = dose: 100.0 mg/kg/injection, schedule: Q01DX001 (ip), vehicle: saline
[2] = dose: 200.0 mg/kg/injection, schedule: Q01DX001 (ip), vehicle: saline
[3] = dose: 100.0 mg/kg/injection, schedule: Q04DX002 (ip), vehicle: saline
[4] = dose: 200.0 mg/kg/injection, schedule: Q04DX002 (ip), vehicle: saline
[5] = dose: 400.0 mg/kg/injection, schedule: Q04DX002 (ip), vehicle: saline
[6] = dose: 100.0 mg/kg/injection, schedule: Q04DX003 (ip), vehicle: Klucel (hydroxypropylcellulose) (HPC)
[7] = dose: 200.0 mg/kg/injection, schedule: Q04DX003 (ip), vehicle: Klucel (hydroxypropylcellulose) (HPC)
[8] = dose: 100.0 mg/kg/injection, schedule: Q01DX009 (ip), vehicle: saline with Tween-80
[9] = dose: 100.0 mg/kg/injection, schedule: Q04DX003 (ip), vehicle: saline with Tween-80
[10] = dose: 200.0 mg/kg/injection, schedule: Q01DX009 (ip), vehicle: saline with Tween-80
[11] = dose: 200.0 mg/kg/injection, schedule: Q04DX003 (ip), vehicle: saline with Tween-80
[12] = dose: 400.0 mg/kg/injection, schedule: Q01DX009 (ip), vehicle: saline with Tween-80
[13] = dose: 400.0 mg/kg/injection, schedule: Q04DX003 (ip), vehicle: saline with Tween-80
[14] = dose: 100.0 mg/kg/injection, schedule: Q01DX009 (ip), vehicle: Klucel (hydroxypropylcellulose) (HPC)
[15] = dose: 200.0 mg/kg/injection, schedule: Q01DX009 (ip), vehicle: Klucel (hydroxypropylcellulose) (HPC)
[16] = dose: 400.0 mg/kg/injection, schedule: Q01DX009 (ip), vehicle: Klucel (hydroxypropylcellulose) (HPC)
[17] = dose: 100.0 mg/kg/injection, schedule: Q04DX002 (ip), vehicle: Klucel (hydroxypropylcellulose) (HPC)
[18] = dose: 200.0 mg/kg/injection, schedule: Q04DX002 (ip), vehicle: Klucel (hydroxypropylcellulose) (HPC)
[19] = dose: 400.0 mg/kg/injection, schedule: Q04DX002 (ip), vehicle: Klucel (hydroxypropylcellulose) (HPC)
[20] = dose: 100.0 mg/kg/injection, schedule: Q04DX003 (ip), vehicle: saline
[21] = dose: 200.0 mg/kg/injection, schedule: Q04DX003 (ip), vehicle: saline
[22] = dose: 400.0 mg/kg/injection, schedule: Q01DX001 (ip), vehicle: saline
[23] = dose: 50.0 mg/kg/injection, schedule: Q01DX009 (ip), vehicle: saline
[24] = dose: 100.0 mg/kg/injection, schedule: Q01DX009 (ip), vehicle: saline
[25] = dose: 200.0 mg/kg/injection, schedule: Q01DX009 (ip), vehicle: saline

Measured: T/C

CC(C)(C)CC(C)(C)c1ccc(OCCOc2ccc(C(=O)O)cc2N)cc1
inactive: [1] 92 % of control | [2] 96 % of control

ClCCN(CCCl)c1ccc(Nc2nc(Nc3ccc(N(CCCl)CCCl)cc3)c3ccccc3n2)cc1
inactive: dose: 25.0 mg/kg/injection, schedule: Q04DX002 (ip), vehicle: saline 105 % of control | dose: 50.0 mg/kg/injection, schedule: Q04DX002 (ip), vehicle: saline 113 % of control | [3] 111 % of control | [4] 106 % of control and 109 % of control | [5] 95 % of control

O=C(NCCCl)NC1CCC2CCCCC2C1 (stereo not given)
inactive: dose: 100.0 mg/kg/injection, schedule: Q01DX001 (ip), vehicle: Klucel (hydroxypropylcellulose) (HPC) 100 % of control | [6] 92 % of control | dose: 200.0 mg/kg/injection, schedule: Q01DX001 (ip), vehicle: Klucel (hydroxypropylcellulose) (HPC) 102 % of control | [7] 97 % of control | dose: 400.0 mg/kg/injection, schedule: Q01DX001 (ip), vehicle: Klucel (hydroxypropylcellulose) (HPC) 92 % of control | dose: 400.0 mg/kg/injection, schedule: Q04DX003 (ip), vehicle: Klucel (hydroxypropylcellulose) (HPC) 97 % of control

CC(C)CCCCc1c[nH]c(=O)[nH]c1=O
inactive: [8] 107 % of control | [9] 94 % of control | [10] 104 % of control | [11] 97 % of control | [12] 101 % of control | [13] 92 % of control

O=C1C=C(c2ccccc2)C(Cl)(c2ccccc2)C1 (stereo not given)
inactive: dose: 100.0 mg/kg/injection, schedule: Q01DX001 (ip), vehicle: saline with Tween-80 104 % of control | dose: 200.0 mg/kg/injection, schedule: Q01DX001 (ip), vehicle: saline with Tween-80 96 % of control | dose: 400.0 mg/kg/injection, schedule: Q01DX001 (ip), vehicle: saline with Tween-80 89 % of control

ClCC(Cl)CN1CCCCC1 (stereo not given)
inactive: [9] 112 % of control

O=[N+]([O-])c1ccc(OP(=O)(Oc2ccc([N+](=O)[O-])cc2)Oc2ccc([N+](=O)[O-])cc2)cc1
inactive: dose: 100.0 mg/kg/injection, schedule: Q04DX003 (ip), vehicle: gum acacia 97 % of control and 107 % of control | dose: 200.0 mg/kg/injection, schedule: Q04DX003 (ip), vehicle: gum acacia 92 % of control and 103 % of control | dose: 400.0 mg/kg/injection, schedule: Q04DX003 (ip), vehicle: gum acacia 94 % of control and 95 % of control

O=C1c2ccccc2-c2ncccc21
inactive: [14] 103 % of control | [6] 98 % of control | [15] 102 % of control | [7] 109 % of control | [16] 92 % of control

CC(CC(=O)c1cc(Cl)ccc1O)CC(C)(C)C (stereo not given)
inactive: dose: 75.0 mg/kg/injection, schedule: Q01DX009 (ip), vehicle: Klucel (hydroxypropylcellulose) (HPC) 114 % of control | [17] 97 % of control | dose: 150.0 mg/kg/injection, schedule: Q01DX009 (ip), vehicle: Klucel (hydroxypropylcellulose) (HPC) 97 % of control | [18] 93 % of control | dose: 300.0 mg/kg/injection, schedule: Q01DX009 (ip), vehicle: Klucel (hydroxypropylcellulose) (HPC) 100 % of control | [19] 104 % of control

O=C(NS(=O)(=O)c1ccc(Cl)cc1)c1cccc2ccccc12
inactive: [8] 91 % of control

O=C(Nc1ccc(C2=NCCCN2)cc1)N1CCN(C(=O)Nc2ccc(C3=NCCCN3)cc2)CC1
inactive: dose: 10.0 mg/kg/injection, schedule: Q01DX Z (ip), vehicle: water 106 % of control | dose: 20.0 mg/kg/injection, schedule: Q01DX Z (ip), vehicle: water 120 % of control

CC(=O)CCC(=O)CCC(C)=O
inactive: [3] 93 % of control | [4] 101 % of control | [5] 101 % of control

O=C(Nc1ccc(F)c([N+](=O)[O-])c1)Nc1cc(C(F)(F)F)ccc1Cl
inactive: [14] 101 % of control | [15] 90 % of control | [16] 89 % of control

Cc1ccc(S(=O)(=O)OCC(O)C(O)C(O)C(O)C=O)cc1 (stereo not given) (tested in a mixture with another compound)
inactive: [9] 102 % of control | [11] 94 % of control | [13] 94 % of control

Cc1ccc(S(=O)(=O)N/N=C/c2ccc(Cl)s2)cc1
inactive: [8] 95 % of control | [10] 97 % of control | [12] 92 % of control

O=C(O)c1cccc(C(=O)c2ccc([N+](=O)[O-])cc2)c1
inactive: [1] 97 % of control | [20] 90 % of control | [2] 99 % of control | [21] 102 % of control | [22] 96 % of control | dose: 400.0 mg/kg/injection, schedule: Q04DX003 (ip), vehicle: saline 90 % of control

C=CCP(C)(=O)CC=C
inactive: [3] 102 % of control | [4] 108 % of control | [5] 94 % of control

O=C1OC(=O)C2(Br)C3C=CC(CC3)C12Br (stereo not given)
inactive: [9] 93 % of control | [11] 96 % of control | [13] 98 % of control

Nc1cc(S(N)(=O)=O)ccc1Br
inactive: dose: 100.0 mg/kg/injection, schedule: Q04DX003 (ip), vehicle: water 95 % of control | dose: 200.0 mg/kg/injection, schedule: Q04DX003 (ip), vehicle: water 97 % of control | dose: 400.0 mg/kg/injection, schedule: Q04DX003 (ip), vehicle: water 92 % of control

CC(=O)[O][Pb]([O]C(C)=O)([c]1ccccc1)[c]1ccccc1
inactive: [17] 98 % of control | dose: 100.0 mg/kg/injection, schedule: Q04DX002 (ip), vehicle: saline with Tween-80 102 % of control | [18] 102 % of control | dose: 200.0 mg/kg/injection, schedule: Q04DX002 (ip), vehicle: saline with Tween-80 102 % of control | [19] 105 % of control

O=c1[nH]c2ncccc2c(=O)n1OS(=O)(=O)c1ccccc1
inactive: dose: 50.0 mg/kg/injection, schedule: Q01DX001 (ip), vehicle: saline 102 % of control | [23] 98 % of control | [1] 96 % of control | [24] 106 % of control | [2] 93 % of control | [25] 98 % of control | [22] 96 % of control

Cc1nc2cnn(C)c2nc1C
inactive: [23] 101 % of control | [24] 97 % of control | [20] 106 % of control | [25] 88 % of control | [21] 100 % of control

O=C1NC2C=CC1/C=C\C=C/2 (stereo not given)
inactive: [3] 96 % of control | [4] 86 % of control

CN(N=O)c1ccc(/C=C/c2ccnc3ccccc23)cc1
inactive: dose: 50.0 mg/kg/injection, schedule: Q01DX001 (ip), vehicle: carboxymethylcellulose (CMC) 98 % of control | dose: 100.0 mg/kg/injection, schedule: Q01DX001 (ip), vehicle: carboxymethylcellulose (CMC) 93 % of control | dose: 200.0 mg/kg/injection, schedule: Q01DX001 (ip), vehicle: carboxymethylcellulose (CMC) 93 % of control | dose: 400.0 mg/kg/injection, schedule: Q01DX001 (ip), vehicle: carboxymethylcellulose (CMC) 91 % of control
